Test results: article PMC4674063, “Uncovering the Molecular Mechanism of Actions between Pharmaceuticals and Proteins on the AD Network” (PLoS ONE, 2015)
Like-named read-outs stand apart in the source and are kept apart here.

What was measured:
[1] = molecular target: NEP (Homo sapiens, UniProt P08473); test: Wet-lab test of inhibition of NEP; type: biochemical; design: inhibition rate / quenching efficiency: concentration or dose not given beside the values
[2] = molecular target: T1, IDE (Homo sapiens, UniProt P14735); test: Wet-lab test of inhibition of IDE; type: biochemical; settings: for inhibition rate / quenching efficiency / IC50: binding to IDE; for IC50: computed value
T1 sequence (P14735 1-1019): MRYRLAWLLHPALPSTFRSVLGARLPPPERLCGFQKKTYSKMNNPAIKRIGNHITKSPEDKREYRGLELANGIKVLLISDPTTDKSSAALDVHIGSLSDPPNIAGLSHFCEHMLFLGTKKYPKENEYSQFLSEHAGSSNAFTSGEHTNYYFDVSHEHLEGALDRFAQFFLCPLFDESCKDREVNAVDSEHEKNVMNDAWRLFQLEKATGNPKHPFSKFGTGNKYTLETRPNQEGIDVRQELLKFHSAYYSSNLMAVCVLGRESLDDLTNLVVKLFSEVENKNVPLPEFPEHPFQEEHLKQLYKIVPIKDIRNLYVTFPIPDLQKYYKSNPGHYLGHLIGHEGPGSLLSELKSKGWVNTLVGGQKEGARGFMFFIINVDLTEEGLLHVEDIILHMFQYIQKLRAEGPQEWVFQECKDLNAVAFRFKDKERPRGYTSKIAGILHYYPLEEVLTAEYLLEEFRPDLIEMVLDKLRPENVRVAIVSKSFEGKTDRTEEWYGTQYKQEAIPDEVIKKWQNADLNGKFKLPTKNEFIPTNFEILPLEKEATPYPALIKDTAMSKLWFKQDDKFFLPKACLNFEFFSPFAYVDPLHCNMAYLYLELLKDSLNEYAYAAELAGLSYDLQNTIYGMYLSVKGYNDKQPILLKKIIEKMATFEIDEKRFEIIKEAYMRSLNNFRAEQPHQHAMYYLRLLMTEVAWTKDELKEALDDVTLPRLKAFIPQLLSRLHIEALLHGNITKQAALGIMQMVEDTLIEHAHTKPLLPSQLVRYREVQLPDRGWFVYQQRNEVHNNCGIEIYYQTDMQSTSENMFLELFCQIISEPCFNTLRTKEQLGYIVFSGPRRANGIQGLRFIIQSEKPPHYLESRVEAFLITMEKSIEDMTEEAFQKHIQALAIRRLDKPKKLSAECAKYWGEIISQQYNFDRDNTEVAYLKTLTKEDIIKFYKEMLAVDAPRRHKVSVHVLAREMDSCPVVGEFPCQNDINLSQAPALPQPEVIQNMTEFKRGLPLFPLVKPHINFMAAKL

[3] = cited from earlier work
[4] = conclusion from both amiloride analogs

NEP, sequence (P08473 whole entry): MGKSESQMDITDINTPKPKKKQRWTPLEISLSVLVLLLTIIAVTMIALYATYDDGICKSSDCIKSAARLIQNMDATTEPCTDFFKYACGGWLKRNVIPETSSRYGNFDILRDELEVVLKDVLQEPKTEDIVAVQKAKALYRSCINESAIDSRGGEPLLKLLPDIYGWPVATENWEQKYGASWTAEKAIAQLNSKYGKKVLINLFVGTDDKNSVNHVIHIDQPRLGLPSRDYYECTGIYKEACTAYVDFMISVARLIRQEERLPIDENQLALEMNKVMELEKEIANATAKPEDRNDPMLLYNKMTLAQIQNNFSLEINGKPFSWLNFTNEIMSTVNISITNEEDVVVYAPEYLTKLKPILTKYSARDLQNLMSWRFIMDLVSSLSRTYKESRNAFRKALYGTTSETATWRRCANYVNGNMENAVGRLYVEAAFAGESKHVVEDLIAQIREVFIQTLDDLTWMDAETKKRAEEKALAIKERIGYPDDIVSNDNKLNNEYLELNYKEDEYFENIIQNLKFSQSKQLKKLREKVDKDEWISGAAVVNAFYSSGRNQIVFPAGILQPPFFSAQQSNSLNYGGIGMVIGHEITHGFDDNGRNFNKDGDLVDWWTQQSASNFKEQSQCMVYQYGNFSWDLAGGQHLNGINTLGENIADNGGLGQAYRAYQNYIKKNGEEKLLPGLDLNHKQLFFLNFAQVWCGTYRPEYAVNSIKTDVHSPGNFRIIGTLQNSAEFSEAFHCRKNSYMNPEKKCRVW

O=C(O)CNC(=O)C(CS)Cc1ccccc1 (racemic) [DL-Thiophan]
inhibition rate ([1]; binding to NEP): 102.01%

CN(C)c1nc(N)c(C(=O)N=C(N)N)nc1Cl.Cl [5-(N,N-Dimethyl) amiloride hydrochloride]
inhibition rate [2]: 93.57%
quenching efficiency [2]: 54.77%
IC50 [2]: 178 µM
inhibition rate ([1]; binding to NEP): 80.96%
quenching efficiency ([1]; binding to NEP): 54.77%
IC50 ([1]; binding to NEP, computed value): 829 µM

N=C(N)NC(=O)c1nc(Cl)c(N)nc1N [AMR, Amiloride]
inhibition of IDE (in words) [2, 4]: strongly inhibits IDE
inhibition of NEP (in words) [1, 4]: weakly inhibits NEP

Cl.N=C(N)NC(=O)c1nc(Cl)c(N)nc1N.O.O [Amiloride HCl dihydrate]
inhibition rate [2]: 95.02%
quenching efficiency [2]: -6.64%
IC50 [2]: 214 µM
inhibition rate ([1]; binding to NEP): 65.21%
quenching efficiency ([1]; binding to NEP): -6.64%

COc1ccc2c3c1O[C@H]1C[C@@H](O)C=C[C@@]31CCN(C)C2 [GNT, galantamine]
crosses the blood-brain barrier (BBB) [3]: cross the blood-brain barrier

C/C=C1\[C@H]2C=C(C)C[C@]1(N)c1ccc(=O)[nH]c1C2 [HUP, Huperzine A]
crosses the blood-brain barrier (BBB) ([3]; in vivo): cross the blood-brain barrier

OCCN1C[C@H](O)[C@@H](O)[C@H](O)[C@H]1CO [MIG, Miglitol]
crosses the BBB ([3]; ref not given): cannot cross BBB

NC(=O)C1=CN([C@@H]2O[C@H](COP(=O)(O)OP(=O)(O)OC[C@H]3O[C@@H](n4cnc5c(N)ncnc54)[C@H](O)[C@@H]3O)[C@@H](O)[C@H]2O)C=CC1 [NAI, NADH]
crosses the BBB [3]: cross the BBB

Nc1c2c(nc3ccccc13)CCCC2 [THA, tacrine]
crosses the blood-brain barrier (BBB) ([3]; in vivo): cross the blood-brain barrier

Cc1c(C)c2c(c(C)c1O)CC[C@@](C)(CCC[C@H](C)CCC[C@H](C)CCCC(C)C)O2 [VIV, Vitamin E]
crosses the BBB [3]: cross the BBB
